Results published in the NIST ThermoML archive (doi:10.1016/j.jct.2016.09.010).

Experiment: xn = mol fraction of the nth substance listed
Details: 100 kPa, Liquid; for speed of sound: Frequency=2 MHz, Linear variable-path acoustic interferometer; for mass density: Vibrating tube method

CCNc1ccccc1 [N-ethylaminobenzene] + CCOC(=O)C(C)O
Details	mass density, 303.15 K [kg/m3]	mass density, 308.15 K [kg/m3]	mass density, 313.15 K [kg/m3]	mass density, 318.15 K [kg/m3]	speed of sound, 303.15 K [m/s]	speed of sound, 308.15 K [m/s]	speed of sound, 313.15 K [m/s]	speed of sound, 318.15 K [m/s]
x2 = 0	952.41	947.69	942.95	938.23	1497	1481	1464	1448
x2 = 0.1195	960.29	955.52	950.71	945.92	1471.1	1455.4	1438.5	1422.6
x2 = 0.2183	966.93	962.08	957.2	952.34	1449.5	1433.6	1416.6	1400.6
x2 = 0.3177	973.69	968.76	963.8	958.86	1427.2	1411.2	1394	1377.7
x2 = 0.424	981.03	976.02	970.97	965.95	1402.7	1386.6	1369.2	1352.7
x2 = 0.5225	987.95	982.86	977.73	972.63	1379.6	1363.4	1345.8	1329.1
x2 = 0.6209	994.95	989.79	984.58	979.4	1355.9	1339.6	1321.8	1305
x2 = 0.726	1002.55	997.31	992.01	986.75	1330	1313.6	1295.6	1278.6
x2 = 0.8128	1008.91	1003.61	998.24	992.91	1308.3	1291.7	1273.6	1256.4
x2 = 0.9074	1015.91	1010.52	1005.09	999.68	1284.5	1267.6	1249.2	1231.8

CCOC(=O)C(C)O (stereo not drawn) [DL-ethyl lactate] + Nc1ccccc1
Details	mass density, 303.15 K [kg/m3]	mass density, 308.15 K [kg/m3]	mass density, 313.15 K [kg/m3]	mass density, 318.15 K [kg/m3]	speed of sound, 303.15 K [m/s]	speed of sound, 308.15 K [m/s]	speed of sound, 313.15 K [m/s]	speed of sound, 318.15 K [m/s]
x1 = 0.0788	1014.12	1010.12	1005.75	1001.3	1588.7	1570.3	1550.3	1531.4
x1 = 0.1638	1015.39	1011.23	1006.72	1002.15	1560.8	1542.5	1522.7	1504
x1 = 0.2514	1016.56	1012.23	1007.57	1002.88	1531.4	1513.2	1493.5	1474.8
x1 = 0.3445	1017.64	1013.15	1008.36	1003.55	1499.5	1481.4	1461.8	1443.2
x1 = 0.4393	1018.65	1014	1009.09	1004.17	1466.5	1448.5	1429	1410.5
x1 = 0.5461	1019.69	1014.87	1009.83	1004.79	1428.6	1410.8	1391.4	1373.1
x1 = 0.6484	1020.59	1015.62	1010.46	1005.31	1391.7	1374.1	1354.9	1336.8
x1 = 0.7644	1021.47	1016.33	1011.05	1005.79	1349.3	1331.9	1312.9	1295
x1 = 0.8737	1022.17	1016.88	1011.49	1006.13	1308.3	1291.1	1272.3	1254.7
x1 = 1	1022.88	1017.39	1011.83	1006.31	1261.1	1243.8	1224.8	1206.9

CNc1ccccc1 [N-methylaniline] + CCOC(=O)C(C)O
Details	mass density, 303.15 K [kg/m3]	mass density, 308.15 K [kg/m3]	mass density, 313.15 K [kg/m3]	mass density, 318.15 K [kg/m3]	speed of sound, 303.15 K [m/s]	speed of sound, 308.15 K [m/s]	speed of sound, 313.15 K [m/s]	speed of sound, 318.15 K [m/s]
x2 = 0	978.2	973.53	969.92	964.9	1547	1526.9	1511	1491.4
x2 = 0.1018	983.17	978.45	974.67	969.62	1520.1	1500.8	1485	1466.1
x2 = 0.1939	987.58	982.78	978.81	973.71	1495.5	1476.5	1460.5	1441.7
x2 = 0.2814	991.69	986.81	982.67	977.52	1471.8	1452.9	1436.6	1417.8
x2 = 0.3934	996.86	991.88	987.51	982.3	1440.7	1422.1	1405.4	1386.7
x2 = 0.491	1001.27	996.21	991.65	986.39	1413.1	1394.7	1377.7	1359.2
x2 = 0.5902	1005.66	1000.52	995.77	990.46	1384.5	1366.4	1349.1	1330.8
x2 = 0.6894	1009.96	1004.74	999.8	994.45	1355.5	1337.7	1320.1	1302
x2 = 0.7851	1014.03	1008.74	1003.62	998.22	1326.8	1309.5	1291.7	1273.8
x2 = 0.8937	1018.56	1013.19	1007.86	1002.41	1293.5	1276.4	1258.3	1240.7
